Results as given in publication PMC4387272, “Pharmacokinetic, pharmacodynamic and biomarker evaluation of transforming growth factor-β receptor I kinase inhibitor, galunisertib, in phase 1 study in patients with advanced cancer” (Investigational new drugs, 2014).
Like-named read-outs stand apart in the source and are kept apart here.

Test system: pSMAD2 in peripheral blood mononuclear cells (PBMCs)
Test: pSMAD2 ELISA in peripheral blood mononuclear cells of treated patients
Assay type: in vivo, Human
Conditions: for inhibition at 160 mg: Homo sapiens, PBMC, 160 mg/day cohort (Part A)
Protocol: pSMAD2 in peripheral blood mononuclear cells (PBMCs) were assessed by a specific ELISA as previously described, in which a rabbit polyclonal antibody recognizing pSMAD2 was used. Total SMAD2 was also assessed and used to normalize the expression of pSMAD2.
A power model was fitted to PK parameter estimates Cmax and AUC(0–24) to assess the extent of dose proportionality. Clinical benefit in this study has been defined as a patient with either a complete response (CR), partial response (PR), and stable disease (SD) ≥6 cycles. MAIP results from plasma samples taken at baseline were compared between patients completing >6 cycles and ≤6 cycles using ANOVA. The analysis included controlling the false discovery rate to 30 % using the Benjamini-Hochberg method. Boxplots showing the distributions at baseline of the potentially prognostic markers are provided. Observed TGF-β-stimulated pSMAD2 (pSMAD2^+) in PBMCs was normalized by TGF-β-stimulated tSMAD2 [(tSMAD2^+) ^0.6[9, 10]] prior to determining the minimum normalized pSMAD2^+ and calculating percentage inhibition post-baseline for each patient. Baseline and minimum post-baseline values for each patient together with maximum percentage inhibition are presented on a line and scatter plot for each patient in Cohort 3 and summary statistics by time point provided from a standard mixed effects regression model, fitting log normalized pSMAD2^+ to the fixed effects of log baseline normalized pSMAD2^+, nominal time point, dose and their interaction and patient as a random effect.
Using an ELISA to detect changes of pSMAD2 in isolated PBMCs as a PD response marker, we observed changes after galunisertib administration. […] In 11 of the 14 patients, pSMAD2 inhibition was assessed at the observed maximum concentration for galunisertib about 2–6 h after administration on Day 14 of the first cycle. In 6 of the 11 patients, pSMAD2 levels were reduced in relationship to drug concentration, while in the remaining 5 patients, there was no relationship at the expected Cmax (Fig. 2a). […] Once the drug was stopped after 14 days of administration, pSMAD2 changes were assessed for the next 3 days in 2 patients, one in Cohort 1 and 1 in Cohort 3 (Fig. 2c and d). The pSMAD2 inhibition was still present although drug levels were low or undetectable. The mean of the observed percentage inhibition of normalized pSMAD2^+ from Cycle 1 Day 1 and Day 12 for Cohort 3 together with the estimated means from the model are provided in Table 2.

`Cc1cccc(-c2nn3c(c2-c2ccnc4ccc(C(N)=O)cc24)CCC3)n1` [galunisertib] was tested, and the “patients with a reduction in pSMAD2 in PBMCs” value (Cohort 3 (160 mg/day), 9 of 14 patients, first 14 days of treatment) was 64%, the “mean percentage inhibition of pSMAD2” value (Cohort 3, end of 14 days of treatment, PBMCs) was “approximately 40%” and the “patients with pSMAD2 levels reduced in relationship to drug concentration” value (Cohort 3, of 11 patients assessed about 2–6 h after administration on Day 14 of first cycle) was 6 patients. It also gave an inhibition at 160 mg (Day 1, 0.5 h, PBMCs, mixed-effects model, read-out: Fitted Percentage Inhibition of Normalized pSMAD2) of 27%, an inhibition at 160 mg (Day 1, 0.5 h, PBMCs, read-out: Observed Percentage Inhibition of Normalized pSMAD2) of 26% and an inhibition at 160 mg (Day 1, 4 h, PBMCs, mixed-effects model, read-out: Fitted Percentage Inhibition of Normalized pSMAD2) of 5%. It also gave an inhibition at 160 mg (Day 1, 4 h, PBMCs, read-out: Observed Percentage Inhibition of Normalized pSMAD2) of 5%, an inhibition at 160 mg (Day 1, 6 h, PBMCs, mixed-effects model, read-out: Fitted Percentage Inhibition of Normalized pSMAD2) of -10% and an inhibition at 160 mg (Day 1, 6 h, PBMCs, read-out: Observed Percentage Inhibition of Normalized pSMAD2) of -10%. For the same compound, the inhibition at 160 mg (Day 12 or 15 post dose (2, 3, 4, 6 h), PBMCs, mixed-effects model, read-out: Fitted Percentage Inhibition of Normalized pSMAD2) was 34%, the inhibition at 160 mg (Day 12 or 15 post dose (2, 3, 4, 6 h), PBMCs, read-out: Observed Percentage Inhibition of Normalized pSMAD2) was 39% and the “pSMAD2 inhibition after drug was stopped” value (next 3 days after 14 days of administration, 2 patients, drug levels low or undetectable) was “still present”.
